Laboratory results taken from patent publication US20080009418A1, “Selective Inhibitors” (Alchemia LTD., priority 2004, published 2008).

Tests used:
Human δ-opioid (DOP) = molecular target: T1, Human δ-opioid (DOP) (Homo sapiens, UniProt P41143); assay: Radioligand binding, human δ-opioid (DOP) membranes, FlashPlate, [3H]-Bremazocine; conditions: compound at 10 μM, [3H]-Bremazocine
T1 construct: purchased Perkin Elmer Biosignal
In short: (§1)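 Cloned human receptor membranes were coated onto FlashPlate wells and incubated with radioligand and compound (added from a 0.5 mM DMSO daughter plate) for 1 hour at room temperature in the dark. Scintillation counting gave percent inhibition, with DMSO defining total and reference ligand defining non-specific binding.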

Human κ-Opioid (KOP) = molecular target: T2, Human κ-Opioid (KOP) (Homo sapiens, UniProt P41145); assay: Radioligand binding, human κ-opioid (KOP) membranes, filtration, [3H]-Diprenorphine; conditions: compound at 10 μM, [3H]-Diprenorphine
T2 construct: purchased Perkin Elmer Biosignal
In short: (§2)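 Filtration binding on cloned human receptor membranes (1 Unit/well), [125I]-Substance P for NK1 and [3H]-Diprenorphine for KOP, 1 h at room temperature. Filters PEI-presoaked, washed with cold 50 mM Tris-HCl pH 7.4, counted by scintillation; percent inhibition calculated, reference ligand defining non-specific binding.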

Human Melanocortin (MC3) = molecular target: T3, Human Melanocortin (MC3) (Homo sapiens, UniProt P41968); assay: Radioligand binding, human melanocortin MC3 membranes, FlashPlate, [125I]-NDP-αMSH; conditions: compound at 10 μM, [125I]-NDP-αMSH
T3 construct: purchased Perkin Elmer Biosignal
In short: as §1

Human Melanocortin (MC4) = molecular target: T4, Human Melanocortin (MC4) (Homo sapiens, UniProt P32245); assay: Radioligand binding, human melanocortin MC4 membranes, FlashPlate, [125I]-NDP-αMSH; conditions: compound at 10 μM, [125I]-NDP-αMSH
T4 construct: purchased Perkin Elmer Biosignal
In short: as §1

Human melanocortin (MC5) = molecular target: T5, Human melanocortin (MC5) (Homo sapiens, UniProt P33032); assay: Radioligand binding, human melanocortin MC5 membranes, FlashPlate, [125I]-NDP-αMSH; conditions: compound at 10 μM, [125I]-NDP-αMSH
T5 construct: purchased Perkin Elmer Biosignal
In short: as §1

[1] = molecular target: T6, Human melanin-concentrating hormone (MCH1) (Homo sapiens, UniProt Q99705); assay: Radioligand binding, human melanin-concentrating hormone MCH1 membranes, FlashPlate, [125I]-S36057; conditions: compound at 10 μM
T6 construct: purchased Perkin Elmer Biosignal
In short: as §1

Human μ-opioid (MOP) = molecular target: T7, Human μ-opioid (MOP) (Homo sapiens, UniProt P35372); assay: Radioligand binding, human μ-opioid (MOP) membranes, FlashPlate, [3H]-Naloxone; conditions: compound at 10 μM, [3H]-Naloxone
T7 construct: purchased Perkin Elmer Biosignal
In short: as §1

Human neurokinin (NK1) = molecular target: T8, Human neurokinin (NK1) (Homo sapiens, UniProt P25103); assay: Radioligand binding, human neurokinin NK1 membranes, filtration, [125I]-Substance P; conditions: compound at 10 μM, [125I]-Substance P
T8 construct: purchased Perkin Elmer Biosignal
In short: as §2

[2] = molecular target: T9, Human neuropeptide Y (NPY-Y1) (Homo sapiens, UniProt P25929); assay: Radioligand binding, human neuropeptide Y NPY-Y1 membranes, FlashPlate, [125I]-PYY; conditions: compound at 10 μM, [125I]-PYY
T9 construct: purchased Perkin Elmer Biosignal
T9 sequence (P25929 1-384): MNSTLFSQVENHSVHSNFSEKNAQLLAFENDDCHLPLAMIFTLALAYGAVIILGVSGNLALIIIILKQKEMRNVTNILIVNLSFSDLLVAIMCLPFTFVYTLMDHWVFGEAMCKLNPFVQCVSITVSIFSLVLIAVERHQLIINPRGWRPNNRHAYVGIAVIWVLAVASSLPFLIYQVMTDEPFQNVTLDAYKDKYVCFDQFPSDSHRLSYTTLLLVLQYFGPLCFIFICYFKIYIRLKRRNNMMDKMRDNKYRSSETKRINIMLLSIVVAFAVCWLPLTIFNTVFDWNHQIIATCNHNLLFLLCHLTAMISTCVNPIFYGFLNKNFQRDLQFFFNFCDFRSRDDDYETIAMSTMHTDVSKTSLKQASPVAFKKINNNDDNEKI
In short: as §1

Human opioid (ORL1) = molecular target: T10, Human opioid (ORL1) (Homo sapiens, UniProt P41146); assay: Radioligand binding, human opioid ORL1 membranes, FlashPlate, [125I]-Nociceptin; conditions: compound at 10 μM, [125I]-Nociceptin
T10 construct: purchased Perkin Elmer Biosignal
In short: as §1

Mouse urotensin (mUR2) = molecular target: T11, Mouse urotensin (mUR2) (Mus musculus, UniProt Q8VIH9); assay: Radioligand binding, mouse urotensin mUR2 membranes, FlashPlate, [125I]-Urotensin II; conditions: compound at 10 μM, [125I]-Urotensin II
T11 construct: purchased Perkin Elmer Biosignal
T11 sequence (Q8VIH9 1-385): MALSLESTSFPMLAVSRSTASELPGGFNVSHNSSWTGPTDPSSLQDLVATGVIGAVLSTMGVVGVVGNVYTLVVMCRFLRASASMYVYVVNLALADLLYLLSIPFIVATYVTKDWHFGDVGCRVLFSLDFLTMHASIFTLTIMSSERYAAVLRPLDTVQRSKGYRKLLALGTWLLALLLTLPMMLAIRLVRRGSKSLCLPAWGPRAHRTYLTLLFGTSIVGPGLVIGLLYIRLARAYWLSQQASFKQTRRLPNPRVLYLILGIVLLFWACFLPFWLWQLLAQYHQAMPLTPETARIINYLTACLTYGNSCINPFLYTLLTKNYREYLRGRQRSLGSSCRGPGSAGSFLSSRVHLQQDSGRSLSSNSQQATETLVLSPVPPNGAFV
In short: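 Cloned mouse urotensin (mUR2) receptor membranes from Perkin Elmer Biosignal were immobilized in FlashPlate microplates using a proprietary coating. Each well got 19.5 μl buffer, then 0.5 μl of DMSO, reference ligand, or compound. Adding 5 μl of [125I]-Urotensin II, diluted to 5× final concentration in binding buffer, started binding. Plates were sealed with TopSeal-A and incubated 1 hour at room temperature in the dark. Wells were counted for 30 seconds each on a TopCount after a 60-second delay, and percentage inhibition was calculated.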

T10 sequence (P41146 whole entry): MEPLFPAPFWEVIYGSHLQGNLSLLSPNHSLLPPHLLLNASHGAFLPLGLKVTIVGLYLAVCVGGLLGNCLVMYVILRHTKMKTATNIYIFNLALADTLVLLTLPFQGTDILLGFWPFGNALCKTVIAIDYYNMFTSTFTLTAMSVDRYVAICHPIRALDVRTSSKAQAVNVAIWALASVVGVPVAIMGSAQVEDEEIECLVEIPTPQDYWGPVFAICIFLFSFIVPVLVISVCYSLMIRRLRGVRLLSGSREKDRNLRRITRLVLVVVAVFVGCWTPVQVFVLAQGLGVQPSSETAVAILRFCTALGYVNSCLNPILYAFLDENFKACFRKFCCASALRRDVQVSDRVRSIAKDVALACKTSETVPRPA
T7 sequence (P35372 whole entry): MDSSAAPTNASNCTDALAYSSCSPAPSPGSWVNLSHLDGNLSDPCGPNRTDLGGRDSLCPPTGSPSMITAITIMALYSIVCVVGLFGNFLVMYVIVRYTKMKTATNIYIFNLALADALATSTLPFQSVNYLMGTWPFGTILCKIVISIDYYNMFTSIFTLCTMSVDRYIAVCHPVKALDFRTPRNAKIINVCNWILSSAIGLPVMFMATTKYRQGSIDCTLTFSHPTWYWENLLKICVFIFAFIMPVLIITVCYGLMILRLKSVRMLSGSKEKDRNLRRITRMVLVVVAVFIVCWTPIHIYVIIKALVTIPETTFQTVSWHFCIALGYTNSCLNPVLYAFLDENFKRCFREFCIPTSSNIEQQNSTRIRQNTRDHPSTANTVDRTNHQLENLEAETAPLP
T8 sequence (P25103 whole entry): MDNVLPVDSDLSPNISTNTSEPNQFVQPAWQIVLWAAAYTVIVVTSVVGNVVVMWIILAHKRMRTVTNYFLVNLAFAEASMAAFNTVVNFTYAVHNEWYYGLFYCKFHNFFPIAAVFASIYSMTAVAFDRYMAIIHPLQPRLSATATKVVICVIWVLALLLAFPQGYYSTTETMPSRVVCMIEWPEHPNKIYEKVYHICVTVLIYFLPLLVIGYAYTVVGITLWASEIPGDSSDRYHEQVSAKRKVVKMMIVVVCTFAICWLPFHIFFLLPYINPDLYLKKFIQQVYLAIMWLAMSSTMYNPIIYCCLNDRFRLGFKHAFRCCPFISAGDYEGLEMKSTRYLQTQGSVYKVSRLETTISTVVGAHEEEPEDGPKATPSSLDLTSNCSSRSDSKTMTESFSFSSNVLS
T5 sequence (P33032 whole entry): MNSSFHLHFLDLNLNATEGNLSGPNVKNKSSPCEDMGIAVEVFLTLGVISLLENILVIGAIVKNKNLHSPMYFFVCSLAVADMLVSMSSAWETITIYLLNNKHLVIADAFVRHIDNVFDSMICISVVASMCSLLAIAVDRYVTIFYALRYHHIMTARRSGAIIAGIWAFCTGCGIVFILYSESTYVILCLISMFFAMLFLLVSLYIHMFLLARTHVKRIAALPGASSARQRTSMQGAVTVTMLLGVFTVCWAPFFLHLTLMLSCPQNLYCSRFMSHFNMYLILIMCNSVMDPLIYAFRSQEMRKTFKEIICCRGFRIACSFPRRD
T3 sequence (P41968 whole entry): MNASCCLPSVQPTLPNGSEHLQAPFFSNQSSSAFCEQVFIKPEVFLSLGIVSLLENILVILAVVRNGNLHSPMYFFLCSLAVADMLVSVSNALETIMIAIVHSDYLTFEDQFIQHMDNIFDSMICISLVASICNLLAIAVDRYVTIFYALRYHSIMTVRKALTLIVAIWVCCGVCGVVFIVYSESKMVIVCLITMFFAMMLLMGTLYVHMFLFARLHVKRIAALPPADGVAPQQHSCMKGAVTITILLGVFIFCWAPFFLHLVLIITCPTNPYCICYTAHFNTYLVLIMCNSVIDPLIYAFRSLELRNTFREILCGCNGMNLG
T4 sequence (P32245 whole entry): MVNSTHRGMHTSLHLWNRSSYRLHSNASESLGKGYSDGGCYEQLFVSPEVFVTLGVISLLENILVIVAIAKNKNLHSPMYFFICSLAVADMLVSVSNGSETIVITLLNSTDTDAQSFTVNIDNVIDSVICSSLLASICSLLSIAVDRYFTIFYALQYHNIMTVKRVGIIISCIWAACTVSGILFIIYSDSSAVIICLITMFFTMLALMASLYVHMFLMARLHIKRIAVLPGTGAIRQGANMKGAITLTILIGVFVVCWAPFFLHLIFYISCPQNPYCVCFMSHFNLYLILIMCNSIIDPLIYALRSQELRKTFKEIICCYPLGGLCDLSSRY
T1 sequence (P41143 whole entry): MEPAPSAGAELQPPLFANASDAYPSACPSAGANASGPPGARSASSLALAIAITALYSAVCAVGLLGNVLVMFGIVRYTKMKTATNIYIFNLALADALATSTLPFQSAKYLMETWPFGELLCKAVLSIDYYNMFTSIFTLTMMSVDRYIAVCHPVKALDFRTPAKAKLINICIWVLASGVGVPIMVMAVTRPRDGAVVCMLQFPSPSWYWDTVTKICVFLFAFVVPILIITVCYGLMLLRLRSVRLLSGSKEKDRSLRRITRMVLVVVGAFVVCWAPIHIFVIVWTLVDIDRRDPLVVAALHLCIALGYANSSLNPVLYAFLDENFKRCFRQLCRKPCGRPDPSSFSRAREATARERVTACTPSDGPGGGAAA
T2 sequence (P41145 whole entry): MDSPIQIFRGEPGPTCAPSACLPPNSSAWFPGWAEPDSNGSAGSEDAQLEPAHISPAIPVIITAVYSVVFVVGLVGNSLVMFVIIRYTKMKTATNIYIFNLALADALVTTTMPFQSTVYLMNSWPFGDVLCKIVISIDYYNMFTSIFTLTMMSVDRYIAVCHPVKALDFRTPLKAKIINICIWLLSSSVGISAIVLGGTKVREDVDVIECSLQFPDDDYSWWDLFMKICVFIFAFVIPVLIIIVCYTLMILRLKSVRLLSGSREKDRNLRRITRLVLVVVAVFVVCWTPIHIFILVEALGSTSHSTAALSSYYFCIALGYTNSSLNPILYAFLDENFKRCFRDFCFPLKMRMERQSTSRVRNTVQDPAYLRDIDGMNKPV
T6 sequence (Q99705 whole entry): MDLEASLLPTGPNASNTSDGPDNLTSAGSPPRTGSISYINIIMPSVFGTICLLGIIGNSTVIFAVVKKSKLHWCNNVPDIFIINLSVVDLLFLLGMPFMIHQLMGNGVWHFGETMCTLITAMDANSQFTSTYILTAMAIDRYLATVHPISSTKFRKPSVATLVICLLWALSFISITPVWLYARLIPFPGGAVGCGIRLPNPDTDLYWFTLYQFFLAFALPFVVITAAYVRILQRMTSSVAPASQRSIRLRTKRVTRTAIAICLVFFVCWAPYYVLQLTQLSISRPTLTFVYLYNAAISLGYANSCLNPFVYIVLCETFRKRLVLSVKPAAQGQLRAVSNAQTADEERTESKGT

SMILES: N=C(N)NCC(=O)NC1COC(COCc2ccc(Cl)cc2)C(O)C1OCc1ccc(Cl)cc1 (stereo not drawn) [compound 539]
- A1: inhibition of radioligand binding, human δ-opioid (DOP) (Human δ-opioid (DOP)): − (“−” indicates less than 50% inhibition at 10 μM)
- A2: inhibition of radioligand binding, human κ-opioid (KOP) (Human κ-Opioid (KOP)): − (“−” indicates less than 50% inhibition at 10 μM)
- A3: inhibition of radioligand binding, human melanocortin (MC3) (Human Melanocortin (MC3)): − (“−” indicates less than 50% inhibition at 10 μM)
- A4: inhibition of radioligand binding, human melanocortin (MC4) (Human Melanocortin (MC4)): + (“+” indicates greater than 50% inhibition at 10 μM)
- A5: inhibition of radioligand binding, human melanocortin (MC5) (Human melanocortin (MC5)): − (“−” indicates less than 50% inhibition at 10 μM)
- A6: inhibition of radioligand binding, human melanin-concentrating hormone (MCH1) ([1]; [125I]-S36057): − (“−” indicates less than 50% inhibition at 10 μM)
- A7: inhibition of radioligand binding, human μ-opioid (MOP) (Human μ-opioid (MOP)): − (“−” indicates less than 50% inhibition at 10 μM)
- A8: inhibition of radioligand binding, human neurokinin (NK1) (Human neurokinin (NK1)): + (“+” indicates greater than 50% inhibition at 10 μM)
- A9: inhibition of radioligand binding, human neuropeptide Y (NPY-Y1) [2]: − (“−” indicates less than 50% inhibition at 10 μM)
- A10: inhibition of radioligand binding, human opioid (ORL1) (Human opioid (ORL1)): − (“−” indicates less than 50% inhibition at 10 μM)
- A11: inhibition of radioligand binding, mouse urotensin (mUR2) (Mouse urotensin (mUR2)): − (“−” indicates less than 50% inhibition at 10 μM)

SMILES: CO[C@H]1[C@H](O)[C@@H](COCc2ccc3ccccc3c2)OC(OCCc2ccccc2)[C@@H]1NC(=O)CCCNC(=N)N (stereo partly drawn) [compound 116]
- A1 radioligand binding, percentage inhibition (Human δ-opioid (DOP)): − (“−” indicates less than 50% inhibition at 10 μM)
- A2 radioligand binding, percentage inhibition (Human κ-Opioid (KOP)): − (“−” indicates less than 50% inhibition at 10 μM)
- A3 radioligand binding, percentage inhibition (Human Melanocortin (MC3)): − (“−” indicates less than 50% inhibition at 10 μM)
- A4 radioligand binding, percentage inhibition (Human Melanocortin (MC4)): − (“−” indicates less than 50% inhibition at 10 μM)
- A5 radioligand binding, percentage inhibition (Human melanocortin (MC5)): + (“+” indicates greater than 50% inhibition at 10 μM)
- A6 radioligand binding, percentage inhibition ([1]; [125I]-S36057): − (“−” indicates less than 50% inhibition at 10 μM)
- A7 radioligand binding, percentage inhibition (Human μ-opioid (MOP)): − (“−” indicates less than 50% inhibition at 10 μM)
- A8 radioligand binding, percentage inhibition (Human neurokinin (NK1)): + (“+” indicates greater than 50% inhibition at 10 μM)
- A9 radioligand binding, percentage inhibition [2]: − (“−” indicates less than 50% inhibition at 10 μM)
- A10 radioligand binding, percentage inhibition (Human opioid (ORL1)): − (“−” indicates less than 50% inhibition at 10 μM)
- A11 radioligand binding, percentage inhibition (Mouse urotensin (mUR2)): − (“−” indicates less than 50% inhibition at 10 μM)

SMILES: COCC1OC(OCc2ccccc2)C(NC(=O)CCNC(=N)N)C(OCc2ccc3ccccc3c2)C1O (stereo not drawn) [compound 191]
- A1: inhibition of radioligand binding (Human δ-opioid (DOP); FlashPlate): − (“−” indicates less than 50% inhibition at 10 μM)
- A2: inhibition of radioligand binding (Human κ-Opioid (KOP); filtration): − (“−” indicates less than 50% inhibition at 10 μM)
- A3: inhibition of radioligand binding (Human Melanocortin (MC3); FlashPlate): − (“−” indicates less than 50% inhibition at 10 μM)
- A4: inhibition of radioligand binding (Human Melanocortin (MC4); FlashPlate): + (“+” indicates greater than 50% inhibition at 10 μM)
- A5: inhibition of radioligand binding (Human melanocortin (MC5); FlashPlate): + (“+” indicates greater than 50% inhibition at 10 μM)
- A6: inhibition of radioligand binding ([1]; [125I]-S36057, FlashPlate): + (“+” indicates greater than 50% inhibition at 10 μM)
- A7: inhibition of radioligand binding (Human μ-opioid (MOP); FlashPlate): − (“−” indicates less than 50% inhibition at 10 μM)
- A8: inhibition of radioligand binding (Human neurokinin (NK1); filtration): + (“+” indicates greater than 50% inhibition at 10 μM)
- A9: inhibition of radioligand binding ([2]; FlashPlate): − (“−” indicates less than 50% inhibition at 10 μM)
- A10: inhibition of radioligand binding (Human opioid (ORL1); FlashPlate): − (“−” indicates less than 50% inhibition at 10 μM)
- A11: inhibition of radioligand binding (Mouse urotensin (mUR2); FlashPlate): − (“−” indicates less than 50% inhibition at 10 μM)
